Measurements reported in patent US9884063B2, “Amido-substituted azole compounds” (Bayer Pharma Aktiengesellschaft, priority 2014, dated 2018).

Target: T1, TNKS2 (Homo sapiens, UniProt Q9H2K2)
T1 sequence (Q9H2K2 1-1166): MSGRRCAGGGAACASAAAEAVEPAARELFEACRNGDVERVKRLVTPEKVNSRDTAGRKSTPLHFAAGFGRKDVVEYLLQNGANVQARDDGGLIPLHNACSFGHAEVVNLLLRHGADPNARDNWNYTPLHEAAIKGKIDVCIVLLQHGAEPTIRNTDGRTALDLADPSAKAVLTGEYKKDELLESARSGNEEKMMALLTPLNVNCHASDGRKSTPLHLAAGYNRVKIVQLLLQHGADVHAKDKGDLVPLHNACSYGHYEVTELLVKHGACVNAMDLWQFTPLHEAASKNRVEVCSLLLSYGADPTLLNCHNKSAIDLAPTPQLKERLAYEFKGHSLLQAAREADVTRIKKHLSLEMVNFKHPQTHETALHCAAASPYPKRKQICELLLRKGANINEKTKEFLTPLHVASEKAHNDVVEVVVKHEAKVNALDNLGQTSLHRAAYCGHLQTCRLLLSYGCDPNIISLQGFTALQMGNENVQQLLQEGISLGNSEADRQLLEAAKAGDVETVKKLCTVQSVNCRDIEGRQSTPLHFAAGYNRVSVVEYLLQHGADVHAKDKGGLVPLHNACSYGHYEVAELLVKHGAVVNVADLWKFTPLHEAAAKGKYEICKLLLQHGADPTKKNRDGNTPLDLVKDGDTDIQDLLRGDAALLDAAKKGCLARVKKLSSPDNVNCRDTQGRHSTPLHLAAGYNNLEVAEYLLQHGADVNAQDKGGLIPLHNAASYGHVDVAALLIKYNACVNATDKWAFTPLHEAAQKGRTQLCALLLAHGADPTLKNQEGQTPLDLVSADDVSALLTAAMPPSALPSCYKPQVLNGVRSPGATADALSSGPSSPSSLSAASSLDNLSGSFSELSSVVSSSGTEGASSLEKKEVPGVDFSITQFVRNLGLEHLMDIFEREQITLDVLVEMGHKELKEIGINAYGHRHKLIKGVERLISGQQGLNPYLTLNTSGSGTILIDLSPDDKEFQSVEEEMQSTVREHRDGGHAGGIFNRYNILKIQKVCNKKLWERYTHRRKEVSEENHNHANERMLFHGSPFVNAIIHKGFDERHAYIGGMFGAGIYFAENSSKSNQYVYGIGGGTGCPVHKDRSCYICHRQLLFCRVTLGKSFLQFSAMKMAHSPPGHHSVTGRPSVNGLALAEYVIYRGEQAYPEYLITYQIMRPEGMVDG
Experiment: Modified TNKS2 Assay 2 (auto-parsylation, [3H]-NAD+ SPA)
Assay type: biochemical
Conditions: 6 nM TNKS2, 96 well

For Cc1cc(NC(=O)c2[nH]cnc2C(=O)NCCN(C)C)ccc1NC(=O)c1ccc(F)cc1Cl [Example 84, N^5-{4-[(2-chloro-4-fluorobenzoyl)amino]-3-methylphenyl}-N^4-[2-(dimethylamino)ethyl]-1H-imidazole-4,5-dicarboxamide], which IC50 is on record?
The IC50 was 260 nM.

How did the IC50 turn out when Cc1cc(NC(=O)c2[nH]cnc2C(=O)NCCN2CCCCC2)ccc1NC(=O)c1ccc(F)cc1Cl [Example 85, N^5-{4-[(2-chloro-4-fluorobenzoyl)amino]-3-methylphenyl}-N^4-[2-(piperidin-1-yl)ethyl]-1H-imidazole-4,5-dicarboxamide] was run?
The IC50 was 10 nM.

For CCNC(=O)c1nc[nH]c1C(=O)Nc1ccc(NC(=O)c2cccc(OC)c2Cl)cc1 [Example 260, N^5-{4-[(2-chloro-3-methoxybenzoyl)amino]phenyl}-N^4-ethyl-1H-imidazole-4,5-dicarboxamide], which IC50 is on record?
Its IC50 is 6200 nM.

CCNC(=O)c1nc[nH]c1C(=O)Nc1ccc(NC(=O)c2ncccc2Cl)cc1 [Example 261, N^5-(4-{[(3-chloropyridin-2-yl)carbonyl]amino}phenyl)-N^4-ethyl-1H-imidazole-4,5-dicarboxamide] was tested. Which IC50 did it give?
The IC50 was 210 nM.

Which IC50 does the source give for CCNC(=O)c1nc[nH]c1C(=O)Nc1ccc(NC(=O)c2cnccc2Cl)cc1 [Example 263, N^5-(4-{[(4-chloropyridin-3-yl)carbonyl]amino}phenyl)-N^4-ethyl-1H-imidazole-4,5-dicarboxamide] here?
Its IC50 is 500 nM.

With CCNC(=O)c1nc[nH]c1C(=O)Nc1ccc(NC(=O)c2cc(OC)ccc2Cl)cc1 [Example 264, N^5-{4-[(2-chloro-5-methoxybenzoyl)amino]phenyl}-N^4-ethyl-1H-imidazole-4,5-dicarboxamide] as the compound, how does the IC50 read?
Its IC50 is 480 nM.

How did the IC50 turn out when C[C@@H]1CCCCN1CCNC(=O)c1[nH]cnc1C(=O)Nc1ccc(NC(=O)c2ccc(F)cc2Cl)cc1 [Example 267, N^4-{4-[(2-chloro-4-fluorobenzoyl)amino]phenyl}-N^5-{2-[(2R)-2-methylpiperidin-1-yl]ethyl}-1H-imidazole-4,5-dicarboxamide] was run?
Its IC50 is 3 nM.

For C[C@@H]1CCCN(CCNC(=O)c2[nH]cnc2C(=O)Nc2ccc(NC(=O)c3ccc(F)cc3Cl)cc2)C1 [Example 278, N^4-{4-[(2-chloro-4-fluorobenzoyl)amino]phenyl}-N^5-{2-[(3R)-3-methylpiperidin-1-yl]ethyl}-1H-imidazole-4,5-dicarboxamide], which IC50 is on record?
The IC50 was 5 nM.

With O=C(Nc1ccc(NC(=O)c2nc[nH]c2C(=O)NCCN2CCC(F)(F)C2)cc1)c1ccc(F)cc1Cl [Example 279, N^4-{4-[(2-chloro-4-fluorobenzoyl)amino]phenyl}-N^5-[2-(3,3-difluoropyrrolidin-1-yl)ethyl]-1H-imidazole-4,5-dicarboxamide] as the compound, how does the IC50 read?
Its IC50 is 20 nM.

Which IC50 does the source give for O=C(Nc1ccc(NC(=O)c2nc[nH]c2C(=O)N[C@H]2CCNC2)cc1)c1ccc(F)cc1Cl [Example 281, N^4-{4-[(2-chloro-4-fluorobenzoyl)amino]phenyl}-N^5-[(3S)-pyrrolidin-3-yl]-1H-imidazole-4,5-dicarboxamide] here?
The IC50 was 70 nM.

With NCCNC(=O)c1[nH]cnc1C(=O)Nc1ccc(NC(=O)c2ccc(F)cc2Cl)cc1 [Example 290, N^5-(2-aminoethyl)-N^4-{4-[(2-chloro-4-fluorobenzoyl)amino]phenyl}-1H-imidazole-4,5-dicarboxamide] as the compound, how does the IC50 read?
Its IC50 is 110 nM.

With O=C(Nc1ccc(NC(=O)c2nc[nH]c2C(=O)NCCN2CCCCC2)cc1OC(F)(F)F)c1ccc(F)cc1Cl [Example 293, N^4-{4-[(2-chloro-4-fluorobenzoyl)amino]-3-(trifluoromethoxy)phenyl}-N^5-[2-(piperidin-1-yl)ethyl]-1H-imidazole-4,5-dicarboxamide] as the compound, how does the IC50 read?
The IC50 was 110 nM.

For CC(CN1CCOCC1)NC(=O)c1[nH]cnc1C(=O)Nc1ccc(NC(=O)c2ccc(F)cc2)cc1 (stereo not shown) [Example 294, N^4-{4-[(4-fluorobenzoyl)amino]phenyl}-N^5-[1-(morpholin-4-yl)propan-2-yl]-1H-imidazole-4,5-dicarboxamide], which IC50 is on record?
The IC50 was 150 nM.
